The target of the first data set is T1, human DGAT1 (Homo sapiens, UniProt O75907).
T1 construct: made in house; host or cells: Sf9 cells (membrane preparation)
T1 sequence (O75907 1-488): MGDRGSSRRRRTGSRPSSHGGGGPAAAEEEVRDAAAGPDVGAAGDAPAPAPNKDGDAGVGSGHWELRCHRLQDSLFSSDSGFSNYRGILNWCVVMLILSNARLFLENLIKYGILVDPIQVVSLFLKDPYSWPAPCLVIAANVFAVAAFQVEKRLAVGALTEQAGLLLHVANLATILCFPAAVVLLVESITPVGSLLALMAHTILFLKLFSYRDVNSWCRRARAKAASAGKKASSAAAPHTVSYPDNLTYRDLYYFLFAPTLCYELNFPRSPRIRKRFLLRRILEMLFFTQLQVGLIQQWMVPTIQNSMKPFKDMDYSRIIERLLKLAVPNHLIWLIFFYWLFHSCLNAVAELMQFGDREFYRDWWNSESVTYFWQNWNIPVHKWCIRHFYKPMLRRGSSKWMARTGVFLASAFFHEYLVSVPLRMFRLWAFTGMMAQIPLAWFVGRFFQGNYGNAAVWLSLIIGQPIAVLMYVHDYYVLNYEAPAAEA
Briefly: DGAT1 enzyme inhibition assay (membrane preparation, LC/MS/MS readout). The data set is classed as biochemical. As to conditions: DGAT1 inhibitory activity, table at end of examples. On the procedure:
The enzyme preparation used in this assay is a membrane preparation from Sf9 cells overexpressing human (His)6DGAT1. During all steps samples were chilled to 4° C. Sf9 cells expressing human (His)6DGAT1 were thawed at RT and re-suspended at a 10:1 ratio (mL buffer/g of cells) in 50 mM HEPES, 1× Complete Protease Inhibitor, pH 7.5.
The re-suspended pellet was homogenized for 1 min using a Brinkman PT 10/35 homogenizer with a 20 mm generator. Cells were lysed using Avestin Emulsiflex (chilled to 4° C.) at 10000-15000 psi. Lysate was centrifuged at 100,000×g for 1 h at 4° C. Supernatant was removed and pellets were re-suspended in 50 mM HEPES, 1× Complete Protease Inhibitor, pH 7.5 at ⅙ the volume of supernatant. Re-suspended pellets were pooled and homogenized with 10 strokes of a Glas-Col motor driven teflon pestle on setting 70. The protein concentration of the membrane preparation was quantified using BCA protein assay with 1% SDS. The membrane preparation was aliquoted, frozen on dry ice, and stored at −80° C.
For 50 mL, 25 mL of 0.2 M HEPES stock buffer, 0.5 mL of 1 M MgCl2 ([…]), and 24.5 mL of milli-Q H2O are added to the 55 mL Wheaton Potter-Elvehjem homogenizer. Enzyme preparation (0.1 mL) is added to buffer and the mixture is homogenized with 5 strokes on ice using the Glas-Col variable speed homogenizer system on setting 70.
For 50 mL, 0.5 mL 10 mM diolein is added to 9.5 mL of EtOH in a 50 mL Falcon screw cap conical centrifuge tube. Five mL of 10 mM sodium acetate pH 4.5 is added followed by 0.5 mL of 10 mM oleoyl-CoA. Finally, the remaining 4.5 mL of 10 mM sodium acetate pH 4.5 is added followed by 30 mL of milli-Q H20. The solution should be gently agitated by hand to induce mixing. The final concentrations of EtOH and sodium acetate are 20% and 2 mM, respectively.
Dry compounds are dissolved in the appropriate volume of DMSO to a final concentration of 10 mM. A 10-point, 3-fold dose response is used to evaluate compound potency. All dilutions are performed in DMSO in a Greiner 384-well microplate.
1. 2 μL of compound in DMSO is added to the appropriate wells. 2 μL of DMSO is added to 100% activity and 100% inhibition controls.
2. 25 μL of enzyme mix is added to all wells and plate(s) are incubated for 10 min at RT.
3. 10 μL of 20% acetic acid quench is added to 100% inhibition control wells. Plate(s) are vortexed using Troemner multi-tube vortexer (setting 7 for 10 sec).
4. 25 μL of substrate mix is added to all wells. Plate(s) are vortexed using Troemner multi-tube vortexer (setting 7 for 10 sec). Plate(s) are incubated for 30 min at RT.
5. 10 μL of 20% acetic acid quench is added to all wells. Plate(s) are vortexed using Troemner multi-tube vortexer (setting 7 for 10 sec).
6. 50 μL of 1-butanol w/glyceryl tripalmitoleate internal standard is added to all wells.
7. Plate(s) are sealed with super pierce strong plate sealer using the thermo-sealer.
8. Plate(s) are vortexed using Troemner multi-tube vortexer (setting 10 for 5 min).
9. Plate(s) are centrifuged at 162×g (1000 rpm for GH-3.8 rotor) for 5 min using Beckman GS-6R tabletop centrifuge.
Samples were analyzed by LC/MS/MS using a Waters 1525 μLC and Quattro Micro API MS. Where indicated, tripalmitolein was used as an internal standard to control for instrument variation.
Data is converted to % inhibition prior to curve fitting using the following equation: […]
Usually IC50 stands for the concentration at which inhibition is half-maximal. For `Cc1cccc(C(=O)Nc2ccc3nc(-c4c(Cl)cccc4Cl)[nH]c3c2)c1` [Example 1-11, N-[2-(2,6-Dichloro-phenyl)-3H-benzoimidazol-5-yl]-3-methyl-benzamide], half-maximal inhibition (IC50) was put at 6.9 µM.

Compound `O=C(Nc1cccc(Cl)c1)c1ccc2nc(-c3cccc(Cl)c3Cl)[nH]c2c1` [Example 1-124, 2-(2,3-Dichloro-phenyl)-3H-benzoimidazole-5-carboxylic acid (3-chloro-phenyl)-amide] returned an IC50 of 0.23 µM.

Compound `COC(=O)c1ccc(-c2nc3ccc(C(=O)Nc4cccc(Cl)c4)cc3[nH]2)cc1` [Example 1-136, 4-[6-(3-Chloro-phenylcarbamoyl)-1H-benzoimidazol-2-yl]-benzoic acid methyl ester] displayed an IC50 of 12 µM.

The compound `Cc1ccccc1CNC(=O)c1ccc2nc(-c3c(Cl)cccc3Cl)oc2c1` [Example 4-15, 2-(2,6-Dichloro-phenyl)-benzooxazole-6-carboxylic acid 2-methyl-benzylamide] displayed an IC50 of 6.8 µM.

The same data set, now with this note: inhibitory activity to human DGAT1, Table 1, values given as ranges.
`CC(=O)Nc1ccc2nc(-c3c(Cl)cccc3Cl)[nH]c2c1` [Example 1-6] returned an IC50 of 1 to 30 µM.

For `CCOc1cccc(CCNC(=O)c2ccc3nc(-c4c(Cl)cccc4Cl)[nH]c3c2)c1` [Example 1-82, 2-(2,6-Dichloro-phenyl)-3H-benzoimidazole-5-carboxylic acid [2-(3-ethoxy-phenyl)-ethyl]-amide], the IC50 is less than 1 µM.

As to `Cc1nc2cc(NC(=O)c3ccc4[nH]c(-c5c(Cl)cccc5Cl)cc4c3)ccc2s1` [Example 3-1, 2-(2,6-dichloro-phenyl)-1H-indole-5-carboxylic acid (2-methyl-benzothiazol-5-yl)-amide], the IC50 lay within 1 to 30 µM.

Take `COc1ccccc1CCNC(=O)c1ccc2nc(-c3c(Cl)cccc3Cl)oc2c1` [Example 4-11, 2-(2,6-Dichloro-phenyl)-benzooxazole-6-carboxylic acid [2-(2-methoxy-phenyl)-ethyl]-amide]: the IC50 was in the range of 30 to 100 µM.

Tested on in a further data set: not given
Test: not given
Conditions: not given
For orientation: melting point means the temperature, or range, at which the solid turns liquid. Turning to `Cc1ccc(NC(=O)c2ccc3oc(-c4c(C)cc(OCC(=O)N(C)C)cc4C)nc3c2)cc1C` [Example 4-23, 2-(4-Dimethylcarbamoylmethoxy-2,6-dimethylphenyl)-benzooxazole-5-carboxylic acid (3,4-dimethylphenyl)-amide], the melting point was 207 to 209 °C.

The compound `Cc1ccc(NC(=O)c2ccc3c(c2)C(=O)N(c2c(C)cccc2C)C3=O)cc1C` [Example 7-1, 2-(2,6-Dimethylphenyl)-1,3-dioxo-2,3-dihydro-1H-isoindole-5-carboxylic acid (3,4-dimethylphenyl)-amide] displayed a melting point of 223 to 225 °C.

As for `Cc1ccc(NC(=O)c2ccc3c(c2)C(=O)N(c2c(Cl)cccc2Cl)C3=O)cc1C` [Example 7-2, 2-(2,6-Dichlorophenyl)-1,3-dioxo-2,3-dihydro-1H-isoindole-5-carboxylic acid (3,4-dimethylphenyl)-amide], the melting point lay within 238 to 240 °C.

The record behind these values is US8222248B2, “Organic compounds” (Novartis AG, priority 2006, dated 2012).
